Our source for the Ki values is patent EP0727211A1, “Use of src SH2 specific compounds to treat a bone resorption disease” (SMITHKLINE BEECHAM CORPORATION, priority 1995, dated 1996).

Structures are written as SMILES.

The assay concerns the target T1, human lck SH2 domain (Homo sapiens, UniProt P06239).
T1 construct: Cloning and expression of human lck SH2 domain containing tags and an enterokinase proteolytic cleavage site; made in house; host or cells: E. coli AR120
Put plainly: SH2 domain / pY peptide binding assay (ELISA-based, 96 well plate), lck SH2. The conditions noted are these: Ki calculated from IC50 by the expanded equation; Table II. How it is done:
The inhibitory activity of compounds at the different human SH2 domains was determined in vitro using SH2 domains expressed as fusion proteins in E. coli. The SH2 domains used herein were the human forms of the src SH2 domain, Grb2 SH2 domain, lck SH2 domain, fyn SH2 domain, SH-PTP2 SH2 domain, p85 SH2 domain and hcp SH2 domain.
The fusion proteins containing the src, lck and hcp SH2 domains were expressed as the general sequence: DET1-DET2-spacer-ek-SH2, where DETI, DET2, spacer, ek and SH2 are as described below. DET1 ("defined epitope tag 1") (SEQ ID NO: 1) is an 11 amino acid sequence found in the Human Immunodeficiency Virus Type 1 (HIV-1) envelope protein gp120 (or gp160). Monoclonal antibodies to various epitopes of HIV-1 gp120 (or gp160) are known in the art, see, for example U.S. Patent 5,166,050. One preferred example is monoclonal antibody 178.1 (see, e.g., Thiriart et al., J. Immunol., 143:1832-1836 (1989)), which was prepared by immunization of mice with a yeast-expressed HIV-1 gp160 molecule from strain BH10 (Ratner et al., Nature, 313:277-284 (1985)). This tag was used for detection of expression (by Western blot), for purification of the protein (by affinity chromatography), and for configuring assays in which the fusion protein was captured or immobilized using the 178.1 antibody. DET2 is a hexahistidine sequence tag (SEQ ID NO: 2) which binds to nickel-containing resins and was used for purification purposes. Spacer (SEQ ID NO: 3) was utilized to design a BamH1 restriction site at the indicated position of the construct. The term -ekrefers to a recognition sequence (SEQ ID NO: 4) for the enterokinase protease which provides for the optional removal of the tags from the SH2 domain, thus producing an SH2 domain that contains no extraneous amino acids. SH2 domains which contain no extraneous amino acids are preferable to tagged protein for crystallography studies. SH2 refers to the SH2 domains of different proteins.
Cloning and expression of human lck SH2 domain containing tags and an enterokinase proteolytic cleavage site (DET1-DET2-spacer-ek-lck SH2).
A DNA sequence encoding protein ek-lck SH2 was PCR amplified from a cDNA clone containing the human lck gene (Genbank accession number M36881) using the following primers: [formula]
The PCR product was digested with BamHI and XbaI, followed by isolation of the digested fragment on an agarose gel. The fragment was ligated into BamHI-XbaI-digested expression vector containing the tagged chicken src gene DET1-DET2-spacer-SH2 described in Procedure 1 above. In that vector, the BamHI site is located in between the coding regions for DET2 and SH2, and the XbaI site is located after the 3' end of the SH2 coding region. Thus, the ek-lck SH2 sequence replaced the src SH2 sequence in the above vector. The ligation reaction was used to transform E. coli MM294cI^+. The construct containing […] was confirmed by DNA sequencing (SEQ ID NO: 6) and induced in E. coli strain AR120 as described in Procedure 1 above. A Coomassie-Blue-stained, Western-blot-positive induced protein band with an apparent molecular weight of 17,000 was observed after nalidixic acid induction.
Cells were lysed at neutral pH by sonication in the presance of lysozyme. After centrifugation, the soluble extract was chromatographed on a Ni^++NTA column. After washing the column with equilibration buffer (Tris buffer pH 8 containing 0.5 M NaCl) and the same buffer containing 15 mM imidazole, the protein was eluted in highly purified form with 25 mM imidazole in equilibration buffer.
The binding assays for the SH2 domains and pY peptides were performed in an ELISA-based 96 well plate assay. In Millipore 96 well filter plates, hydrophilic Durapore® (pore size 0.65um Cat. No. MADVN6550), was added 2 ul (50% suspension) of Protein-G Sepharose (available from Pharmacia of N.J. Cat. No. 17-0618-01) and either 2 ul of 2 mg/ml of MAB178. […]

Broadly, the Ki is a measure of affinity in units of concentration, obtained from inhibition or displacement.

T1 sequence (P06239 127-224 limits assumed): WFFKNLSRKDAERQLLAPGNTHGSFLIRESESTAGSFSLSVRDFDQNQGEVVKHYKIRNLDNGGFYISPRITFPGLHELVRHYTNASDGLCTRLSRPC

Consider `CCCCCCNC(=O)[C@H]1CC[C@H](CNC(=O)c2ccc(C(=O)c3ccc(C(=O)O)cc3)cc2)CC1` [Compound 6, 4-carboxy-benzophenone-4-carboxamido-trans-4-methyl-cyclohexyl-N-hexyl carboxamide], for which the inhibition constant Ki was 50 µM.
